Assay results reported in publication PMC3713598, “Renal Protective Role of Xiexin Decoction with Multiple Active Ingredients Involves Inhibition of Inflammation through Downregulation of the Nuclear Factor-κB Pathway in Diabetic Rats” (Evidence-based Complementary and Alternative Medicine : eCAM, 2013).
Read-outs that look alike come from different tables or passages of the source.

Legend:
NF-κB signalling pathway = assay: Renal NF-κB signalling pathway (western blot, real-time PCR) in diabetic rats; format: in vivo, rat; conditions: XXD 1.25 and 2.5 g/kg, losartan 10 mg/kg ig once a day, 12 weeks; compared with DM
Procedure: (§1) Male Sprague-Dawley rats (90-100 g) were purchased from the Shanghai Slac Laboratory Animal Co. (Shanghai, China). The rats were housed in an air-conditioned room at 22-24°C under a 12-h dark/light cycle and were given food and water at libitum. All animal experiments were conducted in accordance with the institutional guidelines for the care and use of laboratory animals at Shanghai University of TCM. After 1-week adaptation, animals were divided into a normal control (NC) group fed a standard diet and a high-fat group received a high-fat diet. After 4 weeks, rats on the high-fat diet were treated with streptozotocin (40 mg/kg, intraperitoneal injection). All diabetic rats with fasting blood glucose (FBG) levels above 16.7 mmol/L were then randomly divided into 5 groups: diabetic model control (DM); […] In the clinical practice of TCM, XXD is usually prescribed at a daily dose of 46 g of herbal materials (amount to 12 g extract) for diabetic patient. When this human dose was converted into an animal dose (a person of 60 kg, and a conversion factor of 6.25 between human and rat), it was equivalent to the low dose (1.25 g/kg extract) used in this study. […] The membrane-bound antibody was detected by incubation with chemiluminescent reagent plus (Perkin Elmer Life Sciences, Boston, MA, USA) and the signal captured on X-ray film. […]

diabetic rats [1] = assay: Urinary albumin excretion and renal function in diabetic rats; format: in vivo, rat
Procedure: (§4) After 1-week adaptation, animals were divided into a normal control (NC) group fed a standard diet and a high-fat group received a high-fat diet. After 4 weeks, rats on the high-fat diet were treated with streptozotocin (40 mg/kg, intraperitoneal injection). […] NC and DM were treated with vehicle (normal saline) in a matched volume. All the rats were administered the drugs via intragastric gavage (ig) once a day, for 12 weeks.
At 12 weeks, FBG and area under the blood glucose response curve (GAUC) were measured by glucose oxidase method. HbA1c was determined by HPLC (Biorad, Richmond, CA, USA). Serum creatinine, urine creatinine, serum total cholesterol, and triglyceride levels were measured using an automatic biochemistry analyser (Olympus-2000, Tokyo, Japan). Creatinine clearance was calculated. The kidneys were removed, weighed, and parts of them frozen at −80°C until processing for Western blot and RNA extraction, while other parts were removed for histological examination.

MCP-1 = assay: Renal MCP-1 protein and mRNA expression in diabetic rats; format: in vivo, rat; conditions: XXD 1.25 and 2.5 g/kg, losartan 10 mg/kg, metformin 100 mg/kg ig once a day, 12 weeks; compared with DM
Procedure: as §1

diabetic rats [2] = assay: Metabolic parameters in diabetic rats (high-fat diet and streptozotocin); format: in vivo, rat; conditions: for Serum triglyceride: DM 1.1 ± 0.6; for Serum cholesterol: DM 1.5 ± 0.2; for HbA1c: DM 7.2 ± 0.3; for FBG: DM 22.3 ± 2.8; for GAUC (area under the blood glucose response curve): DM 117.1 ± 6.4
Procedure: as §4
At 12 weeks, FBG and area under the blood glucose response curve (GAUC) were measured by glucose oxidase method. HbA1c was determined by HPLC (Biorad, Richmond, CA, USA). Serum creatinine, urine creatinine, serum total cholesterol, and triglyceride levels were measured using an automatic biochemistry analyser (Olympus-2000, Tokyo, Japan). Creatinine clearance was calculated.

IL-6 = assay: Renal IL-6 level by ELISA in diabetic rats; format: in vivo, rat; conditions: XXD 1.25 and 2.5 g/kg, losartan 10 mg/kg ig once a day, 12 weeks; compared with DM
Procedure: (§2) Male Sprague-Dawley rats (90-100 g) were purchased from the Shanghai Slac Laboratory Animal Co. (Shanghai, China). The rats were housed in an air-conditioned room at 22-24°C under a 12-h dark/light cycle and were given food and water at libitum. All animal experiments were conducted in accordance with the institutional guidelines for the care and use of laboratory animals at Shanghai University of TCM. After 1-week adaptation, animals were divided into a normal control (NC) group fed a standard diet and a high-fat group received a high-fat diet. After 4 weeks, rats on the high-fat diet were treated with streptozotocin (40 mg/kg, intraperitoneal injection). All diabetic rats with fasting blood glucose (FBG) levels above 16.7 mmol/L were then randomly divided into 5 groups: diabetic model control (DM); […] In the clinical practice of TCM, XXD is usually prescribed at a daily dose of 46 g of herbal materials (amount to 12 g extract) for diabetic patient. When this human dose was converted into an animal dose (a person of 60 kg, and a conversion factor of 6.25 between human and rat), it was equivalent to the low dose (1.25 g/kg extract) used in this study. […] Tumor necrosis factor α (TNF-α), IL-6 and AGEs protein levels in renal tissue were measured using commercial ELISA kits (R&D, Minneapolis, MN, USA) according to the manufacturer's instructions.

ICAM-1 = assay: Renal ICAM-1 protein and mRNA expression in diabetic rats; format: in vivo, rat; conditions: XXD 1.25 and 2.5 g/kg, losartan 10 mg/kg, metformin 100 mg/kg ig once a day, 12 weeks; compared with DM
Procedure: as §1

TGF-β1 = assay: Renal TGF-β1 protein and mRNA expression in diabetic rats; format: in vivo, rat; conditions: XXD 1.25 and 2.5 g/kg, losartan 10 mg/kg ig once a day, 12 weeks; compared with DM
Procedure: as §1

diabetic rats [3] = assay: Renal histopathology (PAS) and electron microscopy in diabetic rats; format: in vivo, rat; conditions: XXD 1.25 and 2.5 g/kg, losartan 10 mg/kg, metformin 100 mg/kg ig once a day, 12 weeks; compared with DM
Procedure: Male Sprague-Dawley rats (90-100 g) were purchased from the Shanghai Slac Laboratory Animal Co. (Shanghai, China). The rats were housed in an air-conditioned room at 22-24°C under a 12-h dark/light cycle and were given food and water at libitum. All animal experiments were conducted in accordance with the institutional guidelines for the care and use of laboratory animals at Shanghai University of TCM. After 1-week adaptation, animals were divided into a normal control (NC) group fed a standard diet and a high-fat group received a high-fat diet. After 4 weeks, rats on the high-fat diet were treated with streptozotocin (40 mg/kg, intraperitoneal injection). All diabetic rats with fasting blood glucose (FBG) levels above 16.7 mmol/L were then randomly divided into 5 groups: diabetic model control (DM); […] In the clinical practice of TCM, XXD is usually prescribed at a daily dose of 46 g of herbal materials (amount to 12 g extract) for diabetic patient. […] The ratio of the mesangial matrix area to glomerular area (M/G) was determined by quantitative Image-Pro Plus software (PAX-it; […], Villa Park, IL, USA). Briefly, 20 glomeruli were randomly selected from each section, and positive signals within the selected glomerulus were highlighted, measured, and quantified as percent positive area of the entire glomerulus. […]

TNF-α = assay: Renal TNF-α level by ELISA in diabetic rats; format: in vivo, rat; conditions: XXD 1.25 and 2.5 g/kg, losartan 10 mg/kg, metformin 100 mg/kg ig once a day, 12 weeks; compared with DM
Procedure: as §2

RAGE = assay: Renal RAGE expression by western blot in diabetic rats; format: in vivo, rat; conditions: XXD 1.25 and 2.5 g/kg, metformin 100 mg/kg ig once a day, 12 weeks; compared with DM
Procedure: Male Sprague-Dawley rats (90−100 g) were purchased from the Shanghai Slac Laboratory Animal Co. (Shanghai, China). The rats were housed in an air-conditioned room at 22–24°C under a 12-h dark/light cycle and were given food and water at libitum. All animal experiments were conducted in accordance with the institutional guidelines for the care and use of laboratory animals at Shanghai University of TCM. After 1-week adaptation, animals were divided into a normal control (NC) group fed a standard diet and a high-fat group received a high-fat diet. After 4 weeks, rats on the high-fat diet were treated with streptozotocin (40 mg/kg, intraperitoneal injection). […] In the clinical practice of TCM, XXD is usually prescribed at a daily dose of 46 g of herbal materials (amount to 12 g extract) for diabetic patient. When this human dose was converted into an animal dose (a person of 60 kg, and a conversion factor of 6.25 between human and rat), it was equivalent to the low dose (1.25 g/kg extract) used in this study. […]
Kidney tissue was homogenized in radioimmunoprecipitation assay buffer containing 0.5% Nonidet P-40, 0.5% sodium deoxycholate, 0.1% SDS, 10 mmol/L EDTA, and protease inhibitors. […] The membrane-bound antibody was detected by incubation with chemiluminescent reagent plus (Perkin Elmer Life Sciences, Boston, MA, USA) and the signal captured on X-ray film. […]

AGEs = assay: Renal AGEs level by ELISA in diabetic rats; format: in vivo, rat; conditions: XXD 1.25 and 2.5 g/kg, metformin 100 mg/kg ig once a day, 12 weeks; compared with DM
Procedure: (§3) Male Sprague-Dawley rats (90−100 g) were purchased from the Shanghai Slac Laboratory Animal Co. (Shanghai, China). The rats were housed in an air-conditioned room at 22–24°C under a 12-h dark/light cycle and were given food and water at libitum. All animal experiments were conducted in accordance with the institutional guidelines for the care and use of laboratory animals at Shanghai University of TCM. After 1-week adaptation, animals were divided into a normal control (NC) group fed a standard diet and a high-fat group received a high-fat diet. After 4 weeks, rats on the high-fat diet were treated with streptozotocin (40 mg/kg, intraperitoneal injection). […] In the clinical practice of TCM, XXD is usually prescribed at a daily dose of 46 g of herbal materials (amount to 12 g extract) for diabetic patient. When this human dose was converted into an animal dose (a person of 60 kg, and a conversion factor of 6.25 between human and rat), it was equivalent to the low dose (1.25 g/kg extract) used in this study. NC and DM were treated with vehicle (normal saline) in a matched volume. All the rats were administered the drugs via intragastric gavage (ig) once a day, for 12 weeks.
Tumor necrosis factor α (TNF-α), IL-6 and AGEs protein levels in renal tissue were measured using commercial ELISA kits (R&D, Minneapolis, MN, USA) according to the manufacturer's instructions.

[4] = Pharmacokinetics of XXD ingredients in diabetic rat plasma (LC-MS/MS); format: in vivo; conditions: diabetic rats; for AUC(0-t) / Cmax: male, Sprague-Dawley, rat, po, plasma, mean ± SD n = 8; for AUC(0-t): read-out: AUC0–24 h; for Cmax: read-out: C max
Procedure: as §3
The rats treated with XXD for 12 weeks were fasted with free access to water for 12 h before the PK experiments. Blood samples were collected before dosing and at 0, 0.25, 0.5, 1, 2, 4, 6, 12, and 24 h following administration. A validated liquid chromatography-tandem mass spectrometry (LC-MS/MS) method was applied to simultaneously determine the concentration of 11 ingredients (coptisine, jatrorrhizine, berberine, palmatine, baicalin, baicalein, wogonoside, wogonin, rhein, emodin, and aloeemodin) in blood plasma. The plasma concentration-time data were analysed by noncompartmental methods with the WinNonLin software package (Pharsight Corporation, Mountain View, CA, USA) to determine PK parameters.

gut microbes = tested on: gut microbes; set-up: method as in PMID 21915347, PMID 22880019; conditions: by regulation of gut microbes; cited from earlier work
diabetic mouse kidney = tested on: diabetic mouse kidney; set-up: method as in PMID 22483555, PMID 20447389; conditions: cited from earlier work
diabetic nephropathy = conditions: cited from earlier work
[5] = losartan 10 mg/kg ig once a day 12 weeks
[6] = metformin 100 mg/kg ig once a day 12 weeks
[7] = XXD 1.25 g/kg intragastric gavage for 12 weeks
[8] = XXD 2.5 g/kg intragastric gavage for 12 weeks

In the case of `CCCCc1nc(Cl)c(CO)n1Cc1ccc(-c2ccccc2-c2nn[nH]n2)cc1` [losartan], the “renal IKKα, phospho-IκBα, phospho-NF-κBp65, NF-κBp65 and IκBα protein expression changes” value (NF-κB signalling pathway) is reported as “significantly ameliorated”, the “renal NF-κBp65 mRNA expression” value (NF-κB signalling pathway) is reported as “downregulated” and the “urinary albumin excretion (UAE)” value (diabetic rats [1]; XXD 1.25 and 2.5 g/kg, losartan 10 mg/kg, metformin 100 mg/kg ig once a day, 12 weeks, compared with DM) is reported as “significantly reduced”. The Kidney weight/body weight (diabetic rats [1]; losartan 10 mg/kg ig once a day 12 weeks, DM 1.18 ± 0.06) was 1.00 ± 0.05 %, the “renal protein and mRNA MCP-1 expression” value (MCP-1) was “significantly downregulated” and the Serum triglyceride (diabetic rats [2]; [5]) was 0.7 ± 0.3 mmol/L. The Serum cholesterol (diabetic rats [2]; [5]) was 1.3 ± 0.2 mmol/L, the HbA1c (diabetic rats [2]; [5]) was 6.9 ± 0.2% and the FBG (diabetic rats [2]; [5]) was 21.6 ± 4.4 mmol/L. For the same molecule, the “GAUC (area under the blood glucose response curve)” value (diabetic rats [2]; [5]) was 111.8 ± 11.1 mmol·h/L, the “renal IL-6 level” value (IL-6) was “significantly downregulated” and the “renal protein and mRNA ICAM-1 expression” value (ICAM-1) was “significantly downregulated”. For the same molecule, the “renal TGF-β1 protein and mRNA expression” value (TGF-β1) was “significantly downregulated”, the “renal pathological changes (glomerular hypertrophy, mesangial matrix expansion, M/G, basement membrane thickening)” value (diabetic rats [3]) was “ameliorated” and the “renal TNF-α level” value (TNF-α) was “significantly downregulated”.
With `CN(C)C(=N)N=C(N)N` [metformin] the “renal protein and mRNA MCP-1 expression” value (MCP-1) was “significant reduction”, the Serum triglyceride (diabetic rats [2]; [6]) was 1.0 ± 0.3 mmol/L and the Serum cholesterol (diabetic rats [2]; [6]) was 1.2 ± 0.4 mmol/L. For the same molecule, the HbA1c (diabetic rats [2]; [6]) was 6.6 ± 0.5 %, the FBG (diabetic rats [2]; [6]) was 9.4 ± 2.5 mmol/L and the “GAUC (area under the blood glucose response curve)” value (diabetic rats [2]; [6]) was 70.9 ± 9.5 mmol·h/L. For the same molecule, the “renal RAGE expression” value (RAGE) was “downregulated”, the “total renal AGEs content” value (AGEs) was “significantly reduced” and the “renal protein and mRNA ICAM-1 expression” value (ICAM-1) was “significant reduction”. For the same molecule, the “renal pathological changes (glomerular hypertrophy, mesangial matrix expansion, M/G, basement membrane thickening)” value (diabetic rats [3]) was “ameliorated” and the “renal TNF-α level” value (TNF-α) was “significant reduction”.
For `COc1ccc2cc3[n+](cc2c1OC)CCc1cc2c(cc1-3)OCO2` [Berberine, berberine], the “shape of plasma concentration-time curve” value ([4]; after ig administration of XXD for 12 weeks) was “double peaks”, the AUC(0-t) [4, 7] was 757 ± 389 ng·h/mL and the Cmax [4, 7] was 51 ± 20 ng/mL. For the same molecule, the AUC(0-t) [4, 8] was 1730 ± 1040 ng·h/mL, the Cmax [4, 8] was 118 ± 78 ng/mL and the blood lipid levels (gut microbes) was “reduced”. The “TGF-β1, ICAM-1, and VCAM-1 protein expression” value (diabetic mouse kidney) was “downregulating”, the “renal AGE generation” value (diabetic mouse kidney) was “inhibiting” and the IKBα protein level (diabetic mouse kidney; diabetic mouse kidney) was “increased”. For the same molecule, the NF-κBp65 protein level (diabetic mouse kidney; diabetic mouse kidney) was “decreased” and the anti-DN effects (diabetic nephropathy) was “exhibited anti-DN effects”.
